Results: paper PMC2882941 (Pharmaceutical research, 2009)

Biological target: T1, hASBT (Homo sapiens, UniProt Q12908)
T1 sequence (Q12908 1-348): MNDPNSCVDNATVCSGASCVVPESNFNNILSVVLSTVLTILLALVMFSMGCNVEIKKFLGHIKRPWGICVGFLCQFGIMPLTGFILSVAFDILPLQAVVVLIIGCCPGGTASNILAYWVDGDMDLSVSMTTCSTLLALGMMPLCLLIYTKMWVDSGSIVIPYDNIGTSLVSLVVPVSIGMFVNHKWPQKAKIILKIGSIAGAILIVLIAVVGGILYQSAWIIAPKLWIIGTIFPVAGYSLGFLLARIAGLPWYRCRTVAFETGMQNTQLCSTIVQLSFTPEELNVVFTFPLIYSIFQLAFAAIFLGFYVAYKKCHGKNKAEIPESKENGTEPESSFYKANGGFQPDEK
Test: in vitro
Details: MDCK

C[C@H](CCC(=O)NCCS(=O)(=O)O)[C@H]1CC[C@H]2[C@@H]3[C@H](O)C[C@@H]4C[C@H](O)CC[C@]4(C)[C@H]3C[C@H](O)[C@]12C [TCA, Taurocholate]
Papp: 0.089 to 0.3 ×10⁻⁶ cm/s
